SMILES strings stand for the structures. pIC50: −log10 of the molar value.

The target of the assay is T1, CDK9/CycTI (Homo sapiens, UniProt P50750).
T1 construct: purchased Carna biosciences 04-110
T1 sequence (P50750 whole entry): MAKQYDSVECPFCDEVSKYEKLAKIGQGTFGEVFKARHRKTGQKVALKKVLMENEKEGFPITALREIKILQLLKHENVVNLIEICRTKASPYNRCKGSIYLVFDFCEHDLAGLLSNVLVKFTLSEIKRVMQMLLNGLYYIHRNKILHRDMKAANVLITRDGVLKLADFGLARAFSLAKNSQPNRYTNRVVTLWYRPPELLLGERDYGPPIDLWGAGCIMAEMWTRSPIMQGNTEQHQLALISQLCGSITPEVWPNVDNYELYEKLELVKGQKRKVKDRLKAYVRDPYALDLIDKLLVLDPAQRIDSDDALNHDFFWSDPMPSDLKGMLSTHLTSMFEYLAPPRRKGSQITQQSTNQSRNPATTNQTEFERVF
T1 sequence (O60563 whole entry partner): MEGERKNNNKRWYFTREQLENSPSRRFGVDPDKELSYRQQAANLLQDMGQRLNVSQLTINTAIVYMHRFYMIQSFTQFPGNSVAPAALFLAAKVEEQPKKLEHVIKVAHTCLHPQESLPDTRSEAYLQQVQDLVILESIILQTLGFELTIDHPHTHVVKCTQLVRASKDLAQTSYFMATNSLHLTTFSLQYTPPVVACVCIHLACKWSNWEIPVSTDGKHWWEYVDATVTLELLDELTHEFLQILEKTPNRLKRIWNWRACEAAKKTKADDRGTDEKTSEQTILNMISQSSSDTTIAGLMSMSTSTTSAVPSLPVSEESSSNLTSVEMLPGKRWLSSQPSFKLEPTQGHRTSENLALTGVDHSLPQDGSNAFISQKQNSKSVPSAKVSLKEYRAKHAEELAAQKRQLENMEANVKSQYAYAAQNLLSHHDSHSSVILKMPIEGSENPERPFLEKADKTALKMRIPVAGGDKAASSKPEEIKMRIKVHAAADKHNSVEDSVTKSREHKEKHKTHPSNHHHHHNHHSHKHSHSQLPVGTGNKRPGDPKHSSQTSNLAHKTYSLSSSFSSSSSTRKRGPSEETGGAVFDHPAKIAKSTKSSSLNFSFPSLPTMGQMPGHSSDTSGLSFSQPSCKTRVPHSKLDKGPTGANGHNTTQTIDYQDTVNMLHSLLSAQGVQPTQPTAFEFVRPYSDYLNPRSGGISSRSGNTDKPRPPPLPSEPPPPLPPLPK
Briefly: In vitro kinase assay (ADP-Glo Kinase Assay Kit), CDK9/CycTI. Format: biochemical. Conditions: 30 ng CDK9/CycTI, 30 μM CDKtide, 10 μM ATP, 2 hours at room temperature; 8 to 10-point dose response (Tier2); read-out: IC50 Score. Here is the method:
In vitro kinase assay was performed in white, 384-low volume plates in 5 μl reaction volume consisting of 30 ng CDK9/CycTI (Carna biosciences #04-110), 30 μM CDKtide (Signalchem #C06-58) and 10 μM ATP made in reaction buffer (40 mM Tris, pH 7.5; 20 mM MgCl2; 0.1 mg/ml BSA; 50 μM DTT) at 1 μM & 10 μM compound concentration for Tier1 assay and 8 to 10-point dose response curve for Tier2 assay. After 2 hours of incubation at room temperature, the amounts of […] in the kinase reaction were quantified using ADP-Glo™ Kinase Assay Kit (Promega #V9102). Briefly, 5 μl of ADP-Glo™ reagent was added to stop the kinase reaction and plate was incubated for 40 minutes at room temperature. Subsequently, 10 μl of Kinase Detection Reagent was added and luminescence was recorded after 30 minutes of incubation at room temperature.
The inhibition of kinase activity was determined relative to positive control (2% DMSO) and IC50 was calculated using GraphPad prism software (four parameter-variable slope equation).
(In general: ADP-Glo first removes unused ATP, then detects ADP through luciferase.)
A word on the pIC50: it is −log10 of the IC50, conventionally taken in molar units. `CC(=O)N1CCC(C(=O)Nc2nc3ccc4cc(F)ccc4c3s2)C1` (racemic) [Compound 55, 1-acetyl-N-(7-fluoronaphtho[2,1-d]thiazol-2-yl)pyrrolidine-3-carboxamide]: the pIC50 was 7.00 to 9.00.
The result for `O=C(Nc1nc2ccc3cc(F)ccc3c2s1)C1CCNC1` (racemic) [Compound 83, N-(7-fluoronaphtho[2,1-d]thiazol-2-yl)pyrrolidine-3-carboxamide] reads 7.00 to 9.00.
The result for `CC(=O)N1CCNCC1C(=O)Nc1nc2ccc3cc(F)ccc3c2s1` (single isomer, unassigned) [Compound 18-a, 1-acetyl-N-(7-fluoronaphtho[2,1-d]thiazol-2-yl)piperazine-2-carboxamide] reads 6.30 to 7.00; that for `CC(=O)N1CCNCC1C(=O)Nc1nc2ccc3cc(F)ccc3c2s1` (single isomer, unassigned) [Compound 18-b, 1-acetyl-N-(7-fluoronaphtho[2,1-d]thiazol-2-yl)piperazine-2-carboxamide], 4.70 to 6.00.
Regarding `CC(=O)N1CCN(C)CC1C(=O)Nc1nc2ccc3cc(F)ccc3c2s1` (single isomer, unassigned) [Compound 32, 1-acetyl-N-(7-fluoronaphtho[2,1-d]thiazol-2-yl)-4-methylpiperazine-2-carboxamide], the pIC50 was 4.70 to 6.00.
Take `CC(=O)N1CCC(C(=O)Nc2nc3ccc4cc(F)ccc4c3s2)C1` (single isomer, unassigned) [Compound 36, 1-acetyl-N-(7-fluoronaphtho[2,1-d]thiazol-2-yl)pyrrolidine-3-carboxamide]: the pIC50 is 7.00 to 9.00.
`O=C(Nc1nc2ccc3cc(F)ccc3c2s1)C1CCNC1` (single isomer, unassigned) [Compound 37, N-(7-fluoronaphtho[2,1-d]thiazol-2-yl)pyrrolidine-3-carboxamide]: the pIC50 was 7.00 to 9.00.
Turning to `CN1CCC(C(=O)Nc2nc3ccc4cc(F)ccc4c3s2)C1` (single isomer, unassigned) [Compound 48, N-(7-fluoronaphtho[2,1-d]thiazol-2-yl)-1-methylpyrrolidine-3-carboxamide], the negative-log IC50 (pIC50) is 7.00 to 9.00.
The result for `O=C(Nc1nc2ccc3cc(F)ccc3c2s1)C1CCNC1` (single isomer, unassigned) [Compound 51, N-(7-fluoronaphtho[2,1-d]thiazol-2-yl)pyrrolidine-3-carboxamide] reads 7.00 to 9.00; that for `CC(=O)N1CCN(C)CC1C(=O)Nc1nc2ccc3cc(F)ccc3c2s1` (single isomer, unassigned) [Compound 66, 1-acetyl-N-(7-fluoronaphtho[2,1-d]thiazol-2-yl)-4-methylpiperazine-2-carboxamide], 4.70 to 6.00; that for `CC(=O)N1CCCC[C@H]1C(=O)Nc1nc2ccc3cc(F)ccc3c2s1` (single isomer, unassigned) [Compound 67], 4.70 to 6.00.
With `CN1CCC(C(=O)Nc2nc3ccc4cc(F)ccc4c3s2)C1` (single isomer, unassigned) [Compound 70, N-(7-fluoronaphtho[2,1-d]thiazol-2-yl)-1-methylpyrrolidine-3-carboxamide], the pIC50 was 7.00 to 9.00.
With `CC(=O)N1CCC(C(=O)Nc2nc3ccc4cc(F)ccc4c3s2)C1` (single isomer, unassigned) [Compound 82, 1-acetyl-N-(7-fluoronaphtho[2,1-d]thiazol-2-yl)pyrrolidine-3-carboxamide], the pIC50 was 6.30 to 7.00.
`CN1CCC(C(=O)Nc2nc3ccc4cc(F)ccc4c3s2)C1` (single isomer, unassigned) [Compound 92, N-(7-fluoronaphtho[2,1-d]thiazol-2-yl)-1-methylpyrrolidine-3-carboxamide]: the pIC50 is 7.00 to 9.00.
Turning to `CC(C)(C)OC(=O)N1CCC[C@@H]1C(=O)Nc1nc2ccc3ccccc3c2s1` [Compound 1, tert-Butyl (R)-2-(naphtho[2,1-d]thiazol-2-ylcarbamoyl)pyrrolidine-1-carboxylate], the pIC50 was 4.70 to 6.00.
In the case of `O=C(Nc1nc2ccc3ccccc3c2s1)[C@H]1CCCN1` [Compound 2, (R)—N-(naphtho[2,1-d]thiazol-2-yl)pyrrolidine-2-carboxamide] it was 4.70 to 6.00; in that of `CC(=O)N1CCC[C@@H]1C(=O)Nc1nc2ccc3ccccc3c2s1` [Compound 3, (R)-1-acetyl-N-(naphtho[2,1-d]thiazol-2-yl)pyrrolidine-2-carboxamide], 6.30 to 7.00.
In the case of `CC(=O)N1CCC[C@@H]1C(=O)Nc1nc2ccc3cc(F)ccc3c2s1` [Compound 4, (R)-1-acetyl-N-(7-fluoronaphtho[2,1-d]thiazol-2-yl)pyrrolidine-2-carboxamide], the pIC50 was 7.00 to 9.00.
Consider `CC(=O)N1CCC[C@H]1C(=O)Nc1nc2ccc3cc(F)ccc3c2s1` [Compound 5, (S)-1-acetyl-N-(7-fluoronaphtho[2,1-d]thiazol-2-yl)pyrrolidine-2-carboxamide], for which the pIC50 is 4.70 to 6.00.
For `CC(=O)N1CCC[C@@H]1C(=O)Nc1nc2c(s1)-c1ccc(F)cc1CC2` [Compound 6, (R)-1-acetyl-N-(7-fluoro-4,5-dihydronaphtho[2,1-d]thiazol-2-yl)pyrrolidine-2-carboxamide], the pIC50 is 6.00 to 6.30.
The result for `O=C1CC[C@H](C(=O)Nc2nc3ccc4cc(F)ccc4c3s2)N1` [Compound 7, (R)—N-(7-fluoronaphtho[2,1-d]thiazol-2-yl)-5-oxopyrrolidine-2-carboxamide] reads 7.00 to 9.00; that for `O=C1CC[C@@H](C(=O)Nc2nc3ccc4cc(F)ccc4c3s2)N1` [Compound 8, (S)—N-(7-fluoronaphtho[2,1-d]thiazol-2-yl)-5-oxopyrrolidine-2-carboxamide], 7.00 to 9.00.
On to `CS(=O)(=O)N1CCC[C@@H]1C(=O)Nc1nc2ccc3cc(F)ccc3c2s1` [Compound 9, (R)—N-(7-fluoronaphtho[2,1-d]thiazol-2-yl)-1-(methylsulfonyl)pyrrolidine-2-carboxamide], for which the pIC50 is 7.00 to 9.00.
In the case of `O=C(Nc1nc2ccc3cc(F)ccc3c2s1)[C@H]1CCCO1` [Compound 10, (R)—N-(7-fluoronaphtho[2,1-d]thiazol-2-yl)tetrahydrofuran-2-carboxamide] it was 6.30 to 7.00; in that of `O=C1CC[C@@H](C(=O)Nc2nc3ccc4ccccc4c3s2)N1` [Compound 11, (S)—N-(naphtho[2,1-d]thiazol-2-yl)-5-oxopyrrolidine-2-carboxamide], 7.00 to 9.00; in that of `CC(=O)Nc1nc2ccc3cc(F)ccc3c2s1` [Compound 12, N-(7-fluoronaphtho[2,1-d]thiazol-2-yl)acetamide], 6.30 to 7.00.
For the compound `CS(=O)(=O)N[C@@H]1CCC[C@H](C(=O)Nc2nc3ccc4cc(F)ccc4c3s2)C1` [Compound 13-a, (1S,3R)—N-(7-fluoronaphtho[2,1-d]thiazol-2-yl)-3-(methylsulfonamido)cyclohexane-1-carboxamide], the pIC50 was 7.00 to 9.00.
The result for `CS(=O)(=O)N[C@@H]1CCC[C@H](C(=O)Nc2nc3c(s2)-c2ccc(F)cc2CC3)C1` [Compound 13-b, (1S,3R)—N-(7-fluoro-4,5-dihydronaphtho[2,1-d]thiazol-2-yl)-3-(methylsulfonamido)cyclohexane-1-carboxamide] reads 6.30 to 7.00; that for `CC(=O)N[C@@H]1CCC[C@H](C(=O)Nc2nc3ccc4cc(F)ccc4c3s2)C1` [Compound 14, (1S,3R)-3-acetamido-N-(7-fluoronaphtho[2,1-d]thiazol-2-yl)cyclohexane-1-carboxamide], 7.00 to 9.00; that for `O=C(Nc1nc2ccc3cc(F)ccc3c2s1)[C@H]1CCC[C@@H](NS(=O)(=O)C2CC2)C1` [Compound 15-a, (1S,3R)-3-(cyclopropanesulfonamido)-N-(7-fluoronaphtho[2,1-d]thiazol-2-yl)cyclohexane-1-carboxamide], 7.00 to 9.00.
In the case of `O=C(Nc1nc2c(s1)-c1ccc(F)cc1CC2)[C@H]1CCC[C@@H](NS(=O)(=O)C2CC2)C1` [Compound 15-b, (1S,3R)-3-(cyclopropanesulfonamido)-N-(7-fluoro-4,5-dihydronaphtho[2,1-d]thiazol-2-yl)cyclohexane-1-carboxamide] it was 6.00 to 6.30; in that of `CC(=O)N[C@H]1CCC[C@H](C(=O)Nc2nc3ccc4cc(F)ccc4c3s2)C1` [Compound 16, (1S,3S)-3-acetamido-N-(7-fluoronaphtho[2,1-d]thiazol-2-yl)cyclohexane-1-carboxamide], 7.00 to 9.00.
The result for `CC(=O)N1CCC[C@@H]1C(=O)Nc1nc2ccc3cc(Cl)ccc3c2s1` [Compound 17, (R)-1-acetyl-N-(7-chloronaphtho[2,1-d]thiazol-2-yl)pyrrolidine-2-carboxamide] reads 7.00 to 9.00.
For `CC(=O)N1CCOC[C@@H]1C(=O)Nc1nc2ccc3cc(F)ccc3c2s1` [Compound 19, (R)-4-acetyl-N-(7-fluoronaphtho[2,1-d]thiazol-2-yl)morpholine-3-carboxamide], the pIC50 was 7.00 to 9.00.
The result for `O=C(Nc1nc2ccc3cc(F)ccc3c2s1)[C@H]1CCCCN1` [Compound 20] reads 4.70 to 6.00; that for `CC(=O)N1CCCC[C@@H]1C(=O)Nc1nc2ccc3cc(F)ccc3c2s1` [Compound 21], 7.00 to 9.00.
The result for `CC(=O)N(C)[C@@H]1CCC[C@H](C(=O)Nc2nc3ccc4cc(F)ccc4c3s2)C1` [Compound 22] reads 6.30 to 7.00; that for `CC(C)(C)OC(=O)N1CCCC[C@@H]1C(=O)Nc1nc2ccc3cc(F)ccc3c2s1` [Compound 23], 7.00 to 9.00.
Turning to `CN(C(=O)OC(C)(C)C)[C@@H]1CCC[C@H](C(=O)Nc2nc3ccc4cc(F)ccc4c3s2)C1` [Compound 24], the pIC50 was 4.70 to 6.00.

Values taken from US20220281863A1, “COMPOUNDS, COMPOSITIONS AND METHODS OF TREATING DISORDERS” (Reverie Labs, Inc., priority 2019, published 2022).
